These results are taken from US9926293B2, “Multivalent RAS binding compounds” (THE TRUSTEES OF COLUMBIA UNIVERSITY IN THE CITY OF NEW YORK, priority 2014, dated 2018).

In general, Kd refers to the constant that tells how readily two partners part at equilibrium. Low readings indicate tighter binding, high ones weaker binding. A word on the EC50: it is the concentration that produces a half-maximal response.

The subject of assay [1] is RAS-RAF interaction in BJeLR cells. Description: Cell-based RAS pulldown with CRAF-RBD agarose beads. The following applies: 2 μM and 8 μM, 24 hours, serum free. The protocol:
FIG. 20A-FIG. 20B show BJeLR cells were treated as described in FIG. 19A-FIG. 19B and the lysate was incubated with CRAF-RBD bound agarose beads. The beads were then washed three times with PBS to remove any unbound RAS and the bound fraction was then denatured and subjected to detection by western blotting using a pan-RAS antibody (FIG. 20A).
BJeLR cells were seeded at one million cells/10 cm dish in 10% FBS and incubated at 37° C. overnight. The medium was then aspirated and replaced with serum free media containing the inhibitors (from 10 mM DMSO stocks). The cells were then incubated for 24 hours at 37° C. The medium was removed, washed with cold PBS, lysed and spun down at 13,000 rpm at 4° C. to remove unlysed cells and debris. The lysate was incubated with Raf-1 RBD agarose beads (EMD millipore) for 2 hours with rotation at 4° C. The solution was then spun down at 1500×g and the supernatant removed. The beads were washed twice with PBS, resuspended in 2.5×SDS, and then analyzed by western blotting procedure.

For the next assay, the target named is T1, KRAS^G12D with GDP (Homo sapiens, UniProt P01116, G12D).
T1 construct: made in house; host or cells: Escherichia coli BL21-Gold (DE3)
Description: Microscale thermophoresis, GDP-loaded KRAS^G12D. It is filed as binding. The protocol:
[…] After an additional 10 minutes incubation on ice, 200 uL of a 10 uM solution of KRAS^G12D was combined with 200 uL of a 20 uM solution of NT-647-NHS-ester dye (from a 652.4 μM stock). The protein/dye mixture was rotated at 4° C. for 30 minutes, before being separated from the excess dye and buffer exchanged into 25 mM Tris, 100 mM sodium chloride, 2 mM TCEP, and 5 mM MgCl2 via a nap-5 column. The test compounds were arrayed across a 16-point dilution series consisting of 1.5% DMSO with 25 mM Tris, 100 mM NaCl, 2 mM TCEP, 5 mM MgCl2 and 0.05% tween-20. Thermophoretic movement of the fluorescently labeled protein with the inhibitors was performed using a Monolith NT.115 (Nanotemper Technologies). RALA and RHOA were purchased commercially from Abcam (RALA CN:ab102555, RHOA CN:ab101594).
A general note: In MST a laser heats a spot of the sample, and binding alters the fluorescence response.

In a further assay the test system is HT1080 (NRAS Q61K). Description: Cell viability assay (384-well, Alamar blue). The following applies: Homo sapiens, HT-1080, 48 h. It is filed as cell-based. The protocol: (§1) All cell culture assays were incubated at 37° C., 5% CO2 in media containing Dulbecco's Modified Eagle Medium (DMEM) with 10% fetal bovine serum (FBS) and 1% penicillin-streptomycin (PS). 384-well format for EC50 determination: cells were trypsinized, counted, and seeded into 384-well plates at 1,000 cells/well. After 12-16 hours, compounds (as 50 mM stocks in DMSO) were arrayed in an 8- or 16-point dilution series in 384-well polypropylene plates. Compound solutions were transferred at a 1:5 dilution into the assay plates. After 48 hours, a 50% Alamar blue solution was added to a final concentration of 10% Alamar blue. After 6 hours of incubation, fluorescence intensity was determined using a Victor3 plate reader (Perkin Elmer) with a 535 nm excitation filter and a 590 nm emission filter. All compound measurements were performed in triplicate. For experiments performed in 6-well format, cells were trypsinized, counted, and seeded into 6-well plates at 200,000 cells per well 16 h prior to use. Media was then aspirated and replaced with 2 mL of media containing compounds at the indicated concentrations (from 10 mM stocks in DMSO). After 24 hours, cells were trypsinized and viability was determined using Trypan Blue exclusion assay.

A further assay relates to BxPC-3 (WT). The assay can be described thus: Cell viability assay (384-well, Alamar blue). Format: cell-based. The settings on record: Homo sapiens, Table 7, 48 hours, 8-point dilution series. The protocol: as §1
The next assay has as its system MIA Paca-2 (KRAS G12C). Description: Cell viability assay (384-well, Alamar blue). The settings on record: Homo sapiens, MIA PaCa-2, 48 h. It is filed as cell-based. The protocol: as §1
For orientation: Resazurin is reduced to fluorescent resorufin, in cell work by metabolically active cells.

The test system of another assay is Panc-1 (KRAS G12D). The assay can be described thus: Cell viability assay (384-well, Alamar blue). The settings on record: Homo sapiens, PANC-1, 48 h. Format: cell-based. The protocol:
as §1

Another assay relates to MDA-MB-231 (KRAS G13D). Description: Cell viability assay (384-well, Alamar blue). It is filed as cell-based. The settings on record: Homo sapiens, MDA-MB-231, 48 h. The protocol: as §1
For a further assay, the system named is Calu-1 (KRAS G12C). The assay can be described thus: Cell viability assay (384-well, Alamar blue). Format: cell-based. The settings on record: Homo sapiens, Calu-1, 48 h. The protocol:
as §1

Another assay relates to SW480 (KRAS G12V). Description: Cell viability assay (384-well, Alamar blue). It is filed as cell-based. The following applies: Homo sapiens, SW480, 48 h. The protocol: as §1
Another assay concerns BJeLR (HRAS G12V). The assay can be described thus: Cell viability assay (384-well, Alamar blue). The following applies: 48 h. Format: cell-based. The protocol: as §1
In another assay the test system is HPAFII (KRAS G12D). Description: Cell viability assay (384-well, Alamar blue). Format: cell-based. The settings on record: Homo sapiens, HPAF-II, 48 h. The protocol:
as §1

The next assay has as its system U2OS (WT). Description: Cell viability assay (384-well, Alamar blue). Format: cell-based. The settings on record: Homo sapiens, Table 7, 48 hours, 8-point dilution series. The protocol:
as §1

[2] abbreviates: Table 7, 8-point dilution series.
The mark [3] stands for this setting: Table 8, MDA-MB-231 (KRAS^G13O), 384-well, alamar blue.

Consider `NC1(C(=O)NCCCn2cc(-c3ccc(OC(F)(F)F)cc3)c3cc(CN4CCN(Cc5c(Cl)cccc5Cl)CC4)ccc32)CCNCC1` [Compound 31MEW44, 4-amino-N-(3-(5-((4-(2,6-dichlorobenzyl)piperazin-1-yl)methyl)-3-(4-(trifluoromethoxy)phenyl)-1H-indol-1-yl)propyl)piperidine-4-carboxamide], for which the “CRAF-RBD-bound RAS” value in assay [1] is recorded as “dose-dependent decrease in CRAF-RBD-bound RAS”. The loss in affinity result at KRAS^G12D with GDP (GDP-loaded vs GppNHp-loaded KRAS^G12D) was “five-fold”. In addition, on KRAS^G12D with GDP (MST, GDP-loaded KRAS^G12D), the affinity, expressed as Kd, was 45 µM. Moreover, the concentration giving a half-maximal response (EC50) was found to be 2.47 µM in the assay with HT1080 (NRAS Q61K) (setting [2]); 1.1 µM with HT1080 (NRAS Q61K) (Table 8, 384-well, alamar blue); 5.29 µM in the assay on BxPC-3 (WT); 2.81 µM with MIA Paca-2 (KRAS G12C) (setting [2]); 3.2 µM in the assay on MIA Paca-2 (KRAS G12C) (Table 8, 384-well, alamar blue); 2.06 µM with Panc-1 (KRAS G12D) (setting [2]). Further, the 50% effective concentration (EC50) in the assay on Panc-1 (KRAS G12D) (Table 8, 384-well, alamar blue) was found to be 5.1 µM; in the assay with MDA-MB-231 (KRAS G13D) (setting [2]), 2.26 µM; in the assay with MDA-MB-231 (KRAS G13D) (setting [3]) it was 2.3 µM; in the assay on Calu-1 (KRAS G12C) (setting [2]), 3.6 µM; in the assay with Calu-1 (KRAS G12C) (Table 8, 384-well, alamar blue) it was 3.6 µM; in the assay with SW480 (KRAS G12V) (setting [2]), 2.18 µM. Further, the EC50 came to 2.2 µM in the assay on SW480 (KRAS G12V) (Table 8, 384-well, alamar blue); 3.95 µM with BJeLR (HRAS G12V) (setting [2]); 4 µM in the assay on BJeLR (HRAS G12V) (Table 8, 384-well, alamar blue); 6.02 µM with HPAFII (KRAS G12D) (setting [2]); 5.2 µM with HPAFII (KRAS G12D) (Table 8, 384-well, alamar blue); 5.03 µM in the assay on U2OS (WT).

Regarding `NC1(C(=O)NCCCn2cc(-c3cccc(F)c3)c3c(CN4CCN(CCOc5ccc(Cl)cc5)CC4)cccc32)CCNCC1` [Compound 34MEW43, 4-amino-N-(3-(4-((4-(2-(4-chlorophenoxy)ethyl)piperazin-1-yl)methyl)-3-(3-fluorophenyl)-1H-indol-1-yl)propyl)piperidine-4-carboxamide], the “CRAF-RBD-bound RAS” value in assay [1] is reported as “dose-dependent decrease in CRAF-RBD-bound RAS”. For the same molecule, the EC50 came to 5.17 µM with HT1080 (NRAS Q61K) (setting [2]); 5.2 µM in the assay on HT1080 (NRAS Q61K) (Table 8, 384-well, alamar blue); 13.1 µM with BxPC-3 (WT); 8.45 µM with MIA Paca-2 (KRAS G12C) (setting [2]); 8.5 µM in the assay on MIA Paca-2 (KRAS G12C) (Table 8, 384-well, alamar blue); 5.96 µM with Panc-1 (KRAS G12D) (setting [2]). Besides, the EC50 in the assay on Panc-1 (KRAS G12D) (Table 8, 384-well, alamar blue) is 6 µM; in the assay on MDA-MB-231 (KRAS G13D) (setting [2]), 5.63 µM; in the assay with MDA-MB-231 (KRAS G13D) (setting [3]) it was 5.6 µM; in the assay with Calu-1 (KRAS G12C) (setting [2]) it was 9.42 µM; with Calu-1 (KRAS G12C) (Table 8, 384-well, alamar blue) it was 9.4 µM; with SW480 (KRAS G12V) (setting [2]) it was 7.06 µM. The concentration giving a half-maximal response (EC50) stood at 7.1 µM with SW480 (KRAS G12V) (Table 8, 384-well, alamar blue); 9.71 µM in the assay on BJeLR (HRAS G12V) (setting [2]); 9.7 µM with BJeLR (HRAS G12V) (Table 8, 384-well, alamar blue); 16.4 µM in the assay on HPAFII (KRAS G12D) (setting [2]); 16 µM in the assay on HPAFII (KRAS G12D) (Table 8, 384-well, alamar blue); 12.3 µM in the assay with U2OS (WT).
